According to US10882860B2, “Treatment of osteoarthritis” (Samumed, LLC, priority 2015, dated 2021):

Key:
Human MSCs [1] = test: Alcian Blue, Safranin O, and Type II collagen staining; format: cell-based; settings: 14 or 21 days; compared to control
Protocol: Human MSCs were plated in 96-well plates in chondrogenic induction medium (Lonza; DMEM, dexamethasone, ascorbate, insulin-transferrin-selenium [ITS supplement], gentamycin-amphotericin [GA-1000], sodium pyruvate, proline and L-glutamine) and treated with the compound of Formula (I) in DMSO or TGFβ3 (20 μg/mL) as a positive control. Cells were incubated at 37° C., 5% CO2 for either 14 or 21 days, with media changes every 5 days. The cells were fixed using 4% formaldehyde (Electron Microscopy Sciences). For Alcian Blue staining, cells were incubated with 10 mg/mL Alcian Blue (Sigma-Aldrich) in 3% acetic acid (Sigma-Aldrich), pH 2.5 for 30 minutes, washed with PBS, and imaged using a light microscope (Life Technologies) at 10× magnification. For Safranin O staining, cells were incubated with 0.1% Safranin O (Sigma-Aldrich) in distilled water for 5 minutes, washed with PBS and imaged using a light microscope (Life Technologies) at 10× magnification. For Type II collagen staining, cells were incubated with primary antibody in 3% BSA, 0.3% Triton X-100 in PBS with overnight incubation at […]. Cells were then washed and incubated with fluorophore-linked secondary antibody and DAPI (Life Technologies) for 1 hr at room temperature. Cells were washed and imaged using EVOS FL Microscope (Life Technologies).

[2] = test system: Wnt genes TCF7, c-Myc, Axin-2, Ascl 2, and SP5; test: In vitro Wnt pathway inhibition, qRT-PCR in human MSCs; format: cell-based; settings: 30 nM; 48 hours; fold change vs DMSO; FIG. 15
Protocol: Human mesenchymal stem cells (MSCs) were plated in 6-well plates in chondrogenic induction medium (Lonza; DMEM, dexamethasone, ascorbate, insulin-transferrin-selenium [ITS supplement], gentamycin-amphotericin [GA-1000], sodium pyruvate, proline and L-glutamine) and treated with the compound of Formula (I) (30 nM) in DMSO or TGF-β3 (20 μg/mL) as a positive control. Cells were incubated at 37° C., 5% CO2 for 48 hours. Cells were pelleted and washed, and total RNA was isolated and purified using RNeasy Plus Mini Kit (Qiagen). cDNA was synthesized from 1 μg of total RNA using QuantiTect Reverse Transcription kit (Qiagen). qRT-PCR was performed with QuantiTect SYBR Green PCR Kit (Qiagen) and gene-specific primers, using CFX384 thermal cycler (Biorad). Transcripts were quantitated by comparative Ct method and normalized to endogenous controls, β-actin and GAPDH. Fold changes were normalized to DMSO treated cells.

[3] = test system: Wnt activity (Sp5-Luc reporter, SW480 colon carcinoma cells); test: Sp5-Luc Wnt reporter gene assay; format: cell-based; settings: Homo sapiens, FIG. 14
Description: The compound of Formula (I) was screened for Wnt activity. The screening assay is described as follows. Reporter cell lines were generated by stably transducing cancer cell lines (e.g., colon cancer) or primary cells (e.g., IEC-6 intestinal cells) with a lentiviral construct that included a Wnt-responsive promoter driving expression of the firefly luciferase gene.
SW480 colon carcinoma cells were transduced with a lentiviral vector expressing luciferase with a human Sp5 promoter consisting of a sequence of eight TCF/LEF binding sites. SW480 cells stably expressing the Sp5-Luc reporter gene and a hygromycin resistant gene were selected by treatment with 150 μg/mL of hygromycin for 7 days. These stably transduced SW480 cells were expanded in cell culture and used for all further screening activities. […] Following incubation, 20 μL of BrightGlo luminescence reagent (Promega) was added to each well of the 384-well assay plates. The plates were placed on an orbital shaker for 2 min and then luminescence was quantified using the Envision (Perkin Elmer) plate reader. Readings were normalized to DMSO-only treated cells, and normalized activities were utilized for EC50 calculations using the dose-response log (inhibitor) vs. response—variable slope (four parameters) nonlinear regression feature available in GraphPad Prism 5.0 (or Dotmatics).

Human MSCs [4] = test: Chondrogenesis induction, Rhodamine B and Nile Red staining; format: cell-based
Protocol: Human MSCs were plated in 96-well plates in chondrogenic induction medium (Lonza; DMEM, dexamethasone, ascorbate, insulin-transferrin-selenium [ITS supplement], gentamycin-amphotericin [GA-1000], sodium pyruvate, proline and L-glutamine) and treated with the compound of Formula (I) in DMSO or TGFβ3 (20 μg/mL) as a positive control. Cells were incubated at 37° C., 5% CO2 for either 7 or 21 days, with media changes every 5 days. The cells were fixed using 4% formaldehyde (Electron Microscopy Sciences), and stained with 2 μg/mL Rhodamine B (Sigma-Aldrich) and 20 μM Nile Red (Sigma-Aldrich) (Johnson et al. (2012) Science 336(6082):717-721). The nodules were imaged (25 images per well for 96 well plates at 10× magnification) by excitation at 531 nm and emission at 625 nm and quantified using the Celllnsight CX5 (Thermo Scientific). The number of nodules in each well was normalized to the average of 6 DMSO treated wells on the same plate using Excel (Microsoft Inc.). The normalized averages (fold change over DMSO) of 6 replicate wells for each compound concentration were calculated.

secreted GAG = test: Immunosuppression in chondrocytes: GAG content (DMMB); format: cell-based, human; settings: cells stimulated with TNF-α and oncostatin M or IL-1β; 72 hours; FIG. 20A
Protocol: Human MSCs were plated in 10 cm dishes in chondrogenic induction medium (Lonza; DMEM, dexamethasone, ascorbate, insulin-transferrin-selenium [ITS supplement], gentamycin-amphotericin [GA-1000], sodium pyruvate, proline and L-glutamine) and treated with TGF-β3 (20 μg/mL) to induce chondrogenic differentiation. Cells from 4 dishes were pooled and re-plated in 24-well plates in Chondrogenic Induction Medium and treated with various concentrations of the compound of Formula (I). 4 hours later, cells were stimulated by adding TNF-α (20 μg/mL)+Oncostatin M ([…]) or IL-1β (10 μg/mL) and incubated at 37° C., 5% CO2 for 72 hours. Chondrocytes were digested with papain (Sigma). GAG content was measured using the dimethylmethylene blue (DMMB) kit (Chondrex). Briefly, the digested chondrocytes were mixed with DMMB in formate buffer and absorbance at 535 nm was measured using Cytation 3 (Biotek). Nitric oxide was measured using Greiss reagent (Promega) according to manufacturer's protocol.

## CC(C)CC(=O)Nc1cncc(-c2ccc3[nH]nc(-c4nc5c(-c6cccc(F)c6)cncc5[nH]4)c3c2)c1 [compound of Formula (I)]
Human MSCs [1]
  chondrogenesis (Alcian Blue, Safranin O, Type II collagen staining): increased amount of chondrogenesis
[2]
  expression of Wnt genes TCF7, c-Myc, Axin-2, Ascl 2, and SP5: downregulation
[3]
  EC50: 2 nM
Human MSCs [4]; 1.88 nM to 30 nM, FIG. 17
  chondrocyte colonies/well: dose-dependent chondrogenesis
Human MSCs [4]; human MSCs, 7 or 21 days, fold change over DMSO, FIGS. 16A, 16B
  chondrogenesis (Nile Red and Rhodamine B staining): dose dependent increase in chondrogenesis
Secreted GAG
  secreted GAG: reduced
